According to patent US20220390426A1, “AIE PROBE AND APPLICATION THEREOF” (The Hong Kong University of Science and Technology, priority 2020, published 2022):

Target: albumin (HSA) (Homo sapiens, UniProt P02768)
Assay: Albumin detection by ASQ fluorescence in PBS buffer
Type: binding
Conditions: [ASQ]=100 μM, λex=430 nm
Procedure: FIG. 4A The fluorescence response of ASQ to HSA. FIG. 4B Linear plot of l/l0 at 542 nm versus HSA concentrations. l0 equals to the intensity of [HSA]=0 mg/L. FIG. 4C Selectivity study of ASQ towards albumin. l0 equals the intensity of the blank sample. [Biomolecules]=1 mg/mL. [ASQ]=100 μM, λex=430 nm.
Albumin protein is the substance carrier in blood with multiple polar or nonpolar binding sites. […] There is a very good linear relationship between the fluorescence intensity and albumin concentration (FIG. 4B).

Sequence of albumin (HSA) (P02768 25-609): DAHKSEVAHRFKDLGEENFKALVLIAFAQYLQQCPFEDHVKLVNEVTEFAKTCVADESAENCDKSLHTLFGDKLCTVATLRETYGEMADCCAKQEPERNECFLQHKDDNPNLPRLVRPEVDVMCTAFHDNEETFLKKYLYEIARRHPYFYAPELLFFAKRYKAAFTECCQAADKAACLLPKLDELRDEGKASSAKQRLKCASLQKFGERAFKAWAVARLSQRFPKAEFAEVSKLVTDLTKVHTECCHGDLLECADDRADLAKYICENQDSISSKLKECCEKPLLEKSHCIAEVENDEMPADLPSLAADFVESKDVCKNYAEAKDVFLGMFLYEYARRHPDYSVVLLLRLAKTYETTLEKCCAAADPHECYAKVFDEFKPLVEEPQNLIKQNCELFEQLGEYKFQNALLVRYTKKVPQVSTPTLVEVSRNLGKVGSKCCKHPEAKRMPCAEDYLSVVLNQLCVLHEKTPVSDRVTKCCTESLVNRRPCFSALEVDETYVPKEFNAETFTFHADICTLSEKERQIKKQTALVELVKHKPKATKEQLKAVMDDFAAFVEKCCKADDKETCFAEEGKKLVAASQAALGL

fluorescence emission response on addition of albumin (ASQ's PBS buffer solution): greatly enhanced
selectivity towards albumin versus other common biomolecules such as hemoglobin (emission turn-on) ([Biomolecules]=1 mg/mL): good selectivity towards albumin
SMILES: CN(C)c1ccc(C=Cc2nc3ccccc3[nH]c2=O)cc1 [ASQ]
